According to patent US8722849B2, “Polypeptides” (Novo Nordisk A/S, priority 2011, dated 2014):
Values after ≈ are worked out from the molar mass of the structure shown. Like-named read-outs stand apart in the source and are kept apart here. Starred links: 1 amine or outer side, 2 acyl side, 3 side chain; linkers in the order of their positions; H or OH if unused. Positions of bridges follow the written chain, without caps; N, C: chain ends. Residues, ends and D or L forms follow the SMILES beside them. *: point of attachment. C20 diacid = O=C(O)CCCCCCCCCCCCCCCCCCC(=O)*; γGlu = O=C(O)[C@H](CCC(=O)[*:2])N[*:1]

Tests used:
[1] = molecular target: T1, human amylin receptor (amylin 3(a) receptor: human calcitonin receptor + RAMP-3) (Homo sapiens, UniProt O60896+P30988); assay: Assay (II)a functional CRE-luciferase assay, human amylin receptor; type: cell-based; details: Table 2; BHK amylin 3(a)-receptor/CRE-luc cells
T1 construct: expressed in transfected cells; host or cells: BHK570
T1 sequence (P30988 25-474): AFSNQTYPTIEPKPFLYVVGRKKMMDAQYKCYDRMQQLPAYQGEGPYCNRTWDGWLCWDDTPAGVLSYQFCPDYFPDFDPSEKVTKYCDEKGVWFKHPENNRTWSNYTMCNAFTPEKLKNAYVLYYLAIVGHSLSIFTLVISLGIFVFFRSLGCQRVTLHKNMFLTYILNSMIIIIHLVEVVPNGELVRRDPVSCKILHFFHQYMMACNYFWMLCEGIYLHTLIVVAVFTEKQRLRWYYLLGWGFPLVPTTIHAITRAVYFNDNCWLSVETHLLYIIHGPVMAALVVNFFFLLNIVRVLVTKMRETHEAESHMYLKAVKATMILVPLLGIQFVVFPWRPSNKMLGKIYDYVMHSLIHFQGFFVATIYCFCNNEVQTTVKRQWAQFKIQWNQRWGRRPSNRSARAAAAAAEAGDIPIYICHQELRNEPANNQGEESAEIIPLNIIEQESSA
T1 sequence (O60896 24-148 partner): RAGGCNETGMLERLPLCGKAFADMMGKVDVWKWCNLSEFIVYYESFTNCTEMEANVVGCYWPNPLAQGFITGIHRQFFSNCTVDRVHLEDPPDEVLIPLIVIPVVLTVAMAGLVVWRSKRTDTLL

[2] = molecular target: T2, human calcitonin receptor (Homo sapiens, UniProt P30988); assay: Assay (II)a functional CRE-luciferase assay, human calcitonin receptor; type: cell-based; details: Table 7; human calcitonin (CTa) receptor
T2 construct: expressed in transfected cells; host or cells: BHK570
T2 sequence (P30988 25-474): T1 sequence (P30988 25-474)

[3] = Assay (III) ThT fibrillation assay for physical stability; type: physicochemical; details: ThT fibrillation assay
In short: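 Freshly prepared formulations, pH-adjusted, with 1 μM ThT; four or eight replicates incubated at 37 °C under 960 rpm orbital shaking. Fluorescence (ex 444/em 485 nm) read every 20 min; […]. Peptide concentration measured by RP-HPLC before and after the run.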

[4] = Assay (IV) determination of solubility; type: physicochemical
In short: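 Stock ~500 nmol/ml in water; 1:1 with 100 mM buffer, pH 3.0–8.0 (glycylglycine ≤5.0, bistrispropane ≥6.0); 18 h RT; spin; HPLC quantitation of soluble polypeptide.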

[5] = bistrispropane buffer, pH 6, pH 6.0, read-out: Solubility pH 6.0
[6] = bistrispropane buffer, pH 6.5, pH 6.5, read-out: Solubility pH 6.5
[7] = bistrispropane buffer, pH 7, pH 7.0, read-out: Solubility pH 7.0
[8] = bistrispropane buffer, pH 7.5, pH 7.5, read-out: Solubility pH 7.5
[9] = bistrispropane buffer, pH 8, pH 8.0, read-out: Solubility pH 8.0
[10] = glycylglycine buffer, pH 3, pH 3.0, read-out: Solubility pH 3.0
[11] = glycylglycine buffer, pH 4, pH 4.0, 18 hours at room temperature, Table 2, read-out: Solubility pH 4.0
[12] = glycylglycine buffer, pH 4, pH 4.0, read-out: Solubility pH 4.0
[13] = glycylglycine buffer, pH 5, pH 5.0, read-out: Solubility pH 5.0

SMILES	EC50 [1] [nM]	EC50 [2] [nM]	ThT pH 4.0 lag time [3] [h]	ThT pH 4.0 lag time (h) [3] [h]	solubility at 18 h [4, 5] [µM]	solubility at 18 h [4, 6] [µM]	solubility at 18 h [4, 7] [µM]	solubility at 18 h [4, 8] [µM]	solubility at 18 h [4, 9] [µM]	solubility at 18 h [4, 10] [µM]	solubility at 18 h [4, 11] [µM]	solubility at 18 h [4, 12] [µM]	solubility at 18 h [4, 13] [µM]	solubility at 18 h ([4]; bistrispropane buffer, pH 7, pH 7.0, 18 hours at room temperature, Table 3, read-out: Solubility pH 7.0) [µM]
CC[C@H](C)[C@H](NC(=O)[C@@H]1CCCN1C(=O)CNC(=O)[C@H](Cc1ccccc1)NC(=O)[C@H](CC(N)=O)NC(=O)[C@H](CC(N)=O)NC(=O)[C@H](CO)NC(=O)[C@H](CO)NC(=O)[C@H](Cc1c[nH]cn1)NC(=O)[C@H](Cc1c[nH]cn1)NC(=O)[C@H](CC(C)C)NC(=O)[C@H](Cc1ccccc1)NC(=O)[C@H](CCC(=O)O)NC(=O)[C@H](C)NC(=O)[C@H](CC(C)C)NC(=O)[C@H](CCCNC(=N)N)NC(=O)[C@H](CCC(N)=O)NC(=O)[C@@H](NC(=O)[C@H](C)NC(=O)[C@@H]1CSSC[C@H](NC(=O)[C@H](CCCNC(=N)N)NC(=O)CC[C@H](NC(=O)CCCCCCCCCCCCCCCCCCC(=O)O)C(=O)O)C(=O)N[C@@H](CC(N)=O)C(=O)N[C@@H]([C@@H](C)O)C(=O)N[C@@H](C)C(=O)N[C@@H]([C@@H](C)O)C(=O)N1)[C@@H](C)O)C(=O)N[C@@H](CC(C)C)C(=O)N1CCC[C@H]1C(=O)N1CCC[C@H]1C(=O)N[C@H](C(=O)N[C@@H](CC(N)=O)C(=O)N[C@H](C(=O)NCC(=O)N[C@@H](CO)C(=O)N[C@@H](Cc1c[nH]cn1)C(=O)N[C@H](C(=O)N[C@@H](Cc1ccc(O)cc1)C(N)=O)[C@@H](C)O)C(C)C)[C@@H](C)O [Example 95, N-alpha-[(S)-4-Carboxy-4-(19-carboxynonadecanoylamino)butyryl]-[Arg1,Glu14,His17,His35]-pramlintide] ({C20 diacid-γGlu}-RCNTATCATQRLAEFLHHSSNNFGPILPPTNVGSHTY-NH2; disulfide 2-7 (inferred))	0.082	0.175	>45	>45	> 200	16 (≈ 72.1 µg/mL)	2 (≈ 9.01 µg/mL)	11 (≈ 49.6 µg/mL)	51 (≈ 230 µg/mL)	> 200	> 200	> 200	> 200	
CC[C@H](C)[C@H](NC(=O)[C@@H]1CCCN1C(=O)CNC(=O)[C@H](Cc1ccccc1)NC(=O)[C@H](CC(N)=O)NC(=O)[C@H](CC(N)=O)NC(=O)[C@H](CO)NC(=O)[C@H](CO)NC(=O)[C@H](Cc1c[nH]cn1)NC(=O)[C@H](Cc1c[nH]cn1)NC(=O)[C@H](CC(C)C)NC(=O)[C@H](Cc1ccccc1)NC(=O)[C@H](CCC(=O)O)NC(=O)[C@H](C)NC(=O)[C@H](CC(C)C)NC(=O)[C@H](CCCNC(=N)N)NC(=O)[C@H](CCC(N)=O)NC(=O)[C@@H](NC(=O)[C@H](C)NC(=O)[C@@H]1CSSC[C@H](NC(=O)[C@H](CCCCN)NC(=O)CC[C@H](NC(=O)CCCCCCCCCCCCCCCCCCC(=O)O)C(=O)O)C(=O)N[C@@H](CC(N)=O)C(=O)N[C@@H]([C@@H](C)O)C(=O)N[C@@H](C)C(=O)N[C@@H]([C@@H](C)O)C(=O)N1)[C@@H](C)O)C(=O)N[C@@H](CC(C)C)C(=O)N1CCC[C@H]1C(=O)N1CCC[C@H]1C(=O)N[C@H](C(=O)N[C@@H](CC(N)=O)C(=O)N[C@H](C(=O)NCC(=O)N[C@@H](Cc1c[nH]cn1)C(=O)N[C@@H](CC(N)=O)C(=O)N[C@H](C(=O)N[C@@H](Cc1ccc(O)cc1)C(N)=O)[C@@H](C)O)C(C)C)[C@@H](C)O [Example 115, N-alpha-[(S)-4-Carboxy-4-(19-carboxynonadecanoylamino)butyryl]-[Glu14,His17,His34]-pramlintide] ({C20 diacid-γGlu}-KCNTATCATQRLAEFLHHSSNNFGPILPPTNVGHNTY-NH2; disulfide 2-7 (inferred); C-terminus assumed)	0.129	0.115	>45	>45	> 200	73 (≈ 329 µg/mL)	22 (≈ 99.1 µg/mL)	46 (≈ 207 µg/mL)	115 (≈ 518 µg/mL)	> 200	> 200	> 200	> 200	
CC[C@H](C)[C@H](NC(=O)[C@@H]1CCCN1C(=O)CNC(=O)[C@H](Cc1ccccc1)NC(=O)[C@H](CC(N)=O)NC(=O)[C@H](CC(N)=O)NC(=O)[C@H](CO)NC(=O)[C@H](CO)NC(=O)[C@H](CCCNC(=N)N)NC(=O)[C@H](Cc1c[nH]cn1)NC(=O)[C@H](CC(C)C)NC(=O)[C@H](Cc1ccccc1)NC(=O)[C@H](CCC(=O)O)NC(=O)[C@H](C)NC(=O)[C@H](CC(C)C)NC(=O)[C@H](CCCNC(=N)N)NC(=O)[C@H](CCC(N)=O)NC(=O)[C@@H](NC(=O)[C@H](C)NC(=O)[C@@H]1CSSC[C@H](NC(=O)[C@H](Cc2c[nH]cn2)NC(=O)CC[C@H](NC(=O)CCCCCCCCCCCCCCCCCCC(=O)O)C(=O)O)C(=O)N[C@@H](CC(N)=O)C(=O)N[C@@H]([C@@H](C)O)C(=O)N[C@@H](C)C(=O)N[C@@H]([C@@H](C)O)C(=O)N1)[C@@H](C)O)C(=O)N[C@@H](CC(C)C)C(=O)N1CCC[C@H]1C(=O)N1CCC[C@H]1C(=O)N[C@H](C(=O)N[C@@H](CC(N)=O)C(=O)N[C@H](C(=O)NCC(=O)N[C@@H](CO)C(=O)N[C@@H](Cc1c[nH]cn1)C(=O)N[C@H](C(=O)N[C@@H](Cc1ccc(O)cc1)C(N)=O)[C@@H](C)O)C(C)C)[C@@H](C)O [Example 77, N-alpha-[(S)-4-Carboxy-4-(19-carboxynonadecanoylamino)butyryl]-[His1,Glu14,His17,Arg18,His35]-pramlintide] ({C20 diacid-γGlu}-HCNTATCATQRLAEFLHRSSNNFGPILPPTNVGSHTY-NH2; disulfide 2-7 (inferred); C-terminus assumed)	0.066	0.11	>45	>45	185 (≈ 834 µg/mL)	23 (≈ 104 µg/mL)	5 (≈ 22.5 µg/mL)	33 (≈ 149 µg/mL)	94 (≈ 424 µg/mL)	> 200	> 200	> 200	> 200	
CC[C@H](C)[C@H](NC(=O)[C@@H]1CCCN1C(=O)CNC(=O)[C@H](Cc1ccccc1)NC(=O)[C@H](CC(N)=O)NC(=O)[C@H](CC(N)=O)NC(=O)[C@H](CO)NC(=O)[C@H](CO)NC(=O)[C@H](CCCNC(=N)N)NC(=O)[C@H](Cc1c[nH]cn1)NC(=O)[C@H](CC(C)C)NC(=O)[C@H](Cc1ccccc1)NC(=O)[C@H](CCC(=O)O)NC(=O)[C@H](C)NC(=O)[C@H](CC(C)C)NC(=O)[C@H](CCCNC(=N)N)NC(=O)[C@H](CCC(N)=O)NC(=O)[C@@H](NC(=O)[C@H](C)NC(=O)[C@@H]1CSSC[C@H](NC(=O)[C@H](CCCCN)NC(=O)CC[C@H](NC(=O)CCCCCCCCCCCCCCCCCCC(=O)O)C(=O)O)C(=O)N[C@@H](CC(N)=O)C(=O)N[C@@H]([C@@H](C)O)C(=O)N[C@@H](C)C(=O)N[C@@H]([C@@H](C)O)C(=O)N1)[C@@H](C)O)C(=O)N[C@@H](CC(C)C)C(=O)N1CCC[C@H]1C(=O)N1CCC[C@H]1C(=O)N[C@H](C(=O)N[C@@H](CC(N)=O)C(=O)N[C@H](C(=O)NCC(=O)N[C@@H](CO)C(=O)N[C@@H](CC(N)=O)C(=O)N[C@H](C(=O)N[C@@H](Cc1ccc(O)cc1)C(N)=O)[C@@H](C)O)C(C)C)[C@@H](C)O [Example 79, N-alpha-[(S)-4-Carboxy-4-(19-carboxynonadecanoylamino)butyryl]-[Glu14,His17,Arg18]-pramlintide] ({C20 diacid-γGlu}-KCNTATCATQRLAEFLHRSSNNFGPILPPTNVGSNTY-NH2; disulfide 2-7 (inferred))	0.0565	0.077		16	> 200	> 200	> 200	> 200	> 200	> 200	> 200	> 200	> 200	> 200
